Read-outs that look alike come from different tables or passages of the source.
Tested on: M. mycetomatis genome strain MM55
Assay: CLSI M38-A2 based in vitro susceptibility screening (XTT or resazurin), growth at fixed concentration
Format: cell-based, Madurella mycetomatis
Details: Madurella mycetomatis; for Percent fungal survival at 100 µM: read-out: Percentage survival at 100um, 100 uM A (second replicate column)
[1] = 25 uM, mean of three, M. mycetomatis MM55, read-out: Percentage survival at 25um, 25 uM mean
[2] = 25 uM, replicate A, M. mycetomatis MM55, read-out: Percentage survival at 25um, 25 um A
[3] = 25 uM, replicate B, M. mycetomatis MM55, read-out: Percentage survival at 25um, 25 uM B
[4] = 25 uM, replicate C, M. mycetomatis MM55, read-out: Percentage survival at 25um, 25 uM C
[5] = mean of three, M. mycetomatis MM55, read-out: Percentage survival at 100um, 100 uM mean
[6] = replicate 1, M. mycetomatis MM55, read-out: Percentage survival at 100um, 100 uM A (first replicate column)
[7] = replicate 2, M. mycetomatis MM55
[8] = replicate 3, M. mycetomatis MM55, read-out: Percentage survival at 100um, 100 uM A (third replicate column)
[9] = 25 uM, replicate A, read-out: Percentage survival at 25um, 25 um A
[10] = 25 uM, replicate B, read-out: Percentage survival at 25um, 25 uM B
[11] = 25 uM, replicate C, read-out: Percentage survival at 25um, 25 uM C
[12] = 25 uM, mean of replicates, read-out: Percentage survival at 25um, 25 uM mean
[13] = mean of replicates, read-out: Percentage survival at 100um, 100 uM mean
[14] = replicate 1, read-out: Percentage survival at 100um, 100 uM A
[15] = replicate 2, read-out: Percentage survival at 100um, 100 uM A
[16] = replicate 3, read-out: Percentage survival at 100um, 100 uM A
[17] = 25 uM, mean of three replicates, read-out: Percentage survival at 25um, 25 uM mean
[18] = first replicate column, read-out: Percentage survival at 100um, 100 uM A
[19] = mean of three replicates, read-out: Percentage survival at 100um, 100 uM mean
[20] = second replicate column, read-out: Percentage survival at 100um, 100 uM A
[21] = third replicate column, read-out: Percentage survival at 100um, 100 uM A

SMILES | activity at 25 µM [9] [%] | activity at 25 µM [10] [%] | activity at 25 µM [11] [%] | activity at 25 µM [12] [%] | activity at 100 µM [13] [%] | activity at 100 µM [14] [%] | activity at 100 µM [15] [%] | activity at 100 µM [16] [%] | activity at 100 µM [19] [%] | further results
CO[C@@]1(NC(=O)Cc2cccs2)C(=O)N2C(C(=O)O)=C(COC(N)=O)CS[C@@H]21 [MMV1578559] |  |  |  |  |  |  |  |  |  | activity at 25 µM [1]: 84.2%; activity at 25 µM [2]: 91.6%; activity at 25 µM [3]: 86.2%; activity at 25 µM [4]: 74.6%; activity at 100 µM [5]: 90.3%; activity at 100 µM [6]: 87.3%; Percent fungal survival at 100 µM [7]: 98.4%; activity at 100 µM [8]: 85.1%
CONC(=N)c1ccc(-c2ccc(-c3ccc(C(=N)NOC)cc3)o2)cc1 [MMV000059] | 94.2 | 81 | 79.4 |  |  |  |  |  |  | activity at 25 µM (25 uM, mean, read-out: Percentage survival at 25um, 25 uM mean): 84.9%; activity at 100 µM (mean, read-out: Percentage survival at 100um, 100 uM mean): 95.8%; activity at 100 µM (replicate (first column), read-out: Percentage survival at 100um, 100 uM A): 101%; activity at 100 µM (replicate (second column), read-out: Percentage survival at 100um, 100 uM A): 92%; activity at 100 µM (replicate (third column), read-out: Percentage survival at 100um, 100 uM A): 94.6%
Oc1ccc2[nH]c(-c3ccccc3)nc2c1 [MMV292173] | 82.5 | 95.1 | 92 | 89.9 | 93.2 | 100 | 85.4 | 94.1 |  | 
Nc1nc(O)c2ncn(COC(CO)CO)c2n1 [MMV001761] | 86.2 | 64.3 | 58.4 |  |  |  |  |  | 87 | activity at 25 µM [17]: 69.6%; activity at 100 µM [18]: 93.4%; activity at 100 µM [20]: 85.2%; activity at 100 µM [21]: 82.5%
COc1ccc(CNC(=O)C(NS(=O)(=O)c2ccc3nc(C)sc3c2)C(C)C)cc1 (centres unmarked) [MMV303733] | 74.6 | 73.6 | 127 |  |  |  |  |  | 75.7 | activity at 25 µM [17]: 91.8%; activity at 100 µM (replicate 1, read-out: Percentage survival at 100um, 100 uM A (first replicate column)): 82.2%; Percent fungal survival at 100 µM (replicate 2): 77.4%; activity at 100 µM (replicate 3, read-out: Percentage survival at 100um, 100 uM A (third replicate column)): 67.5%
CC(=O)O[C@H]1C[C@@]2(C)[C@@H](C[C@@H](O)[C@H]3[C@@]4(C)CC[C@@H](O)[C@@H](C)[C@@H]4CC[C@@]32C)/C1=C(\CCC=C(C)C)C(=O)O [MMV1578575] |  |  |  |  |  |  |  |  |  | activity at 25 µM [1]: 83.8%; activity at 25 µM [2]: 96.4%; activity at 25 µM [3]: 83.3%; activity at 25 µM [4]: 71.6%; activity at 100 µM [5]: 84.3%; activity at 100 µM [6]: 78.5%; Percent fungal survival at 100 µM [7]: 89.6%; activity at 100 µM [8]: 84.8%
CCCCc1ccc(C(=O)O)nc1 [MMV001726] | 92.6 |  |  |  |  |  |  |  | 74.3 | activity at 100 µM [18]: 91.2%; activity at 100 µM [20]: 61.7%; activity at 100 µM [21]: 69.8%; activity at 25 µM (read-out: Percentage survival at 25um, 25 uM B): 104%; activity at 25 µM (read-out: Percentage survival at 25um, 25 uM C): 77.4%; activity at 25 µM (read-out: Percentage survival at 25um, 25 uM mean): 91.3%
COc1c(F)c(F)cc2c(=O)c(C(=O)O)cn(C3CC3)c12 [MMV1480967] | 87.1 | 91 | 135 | 104 | 77.9 | 85.8 | 67.1 | 80.8 |  | 
CC(C)n1cnc2c(NCc3ccccc3)nc(NCc3ccccc3)nc21 [MMV1579780] | 64.2 | 61.7 | 62 | 62.7 | 61 | 60.4 | 63.1 | 59.6 |  | 
CCc1oc2ccccc2c1C(=O)c1ccc(O)cc1 [MMV1578558] | 95.8 | 97 | 82.9 | 91.9 | 2.03 | -1.97 | 6.39 | 1.66 |  | 

Reference: article PMC8815882, “Screening the pandemic response box identified benzimidazole carbamates, Olorofim and ravuconazole as promising drug candidates for the treatment of eumycetoma” (PLoS Neglected Tropical Diseases, 2022)
